Assay results published in the METLIN SMRT retention time set (Domingo-Almenara et al. 2019).

Assay: gradient 5% acetonitrile 3 min, to 50% in 2 min, to 85% in 15 min, held 3 min, 100 µL/min
Details: column: Zorbax Extend-C18 2.1 x 50 mm; eluents: water / acetonitrile, 0.1% formic acid
Outline: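 Each retention time is based on an adduct peak selected computationally and verified by manual inspection. Measurements used HPLC–quadrupole time-of-flight mass spectrometry in positive and negative ionization mode on mixtures of ~100 pure standards. Chromatography ran on a Zorbax Extend-C18 column (2.1 × 50 mm, 1.8 μm) at 100 μL/min with water and acetonitrile, each containing 0.1% formic acid, and dead and dwell volumes of 40 μL and 900 μL.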

| RP-LC retention time | Compound |
| --- | --- |
| 672 s | COCc1nc2nccc(-c3ccccc3)n2n1 |
| 671 s | Cc1cccc(N2CC(C(=O)NC3CC3)CC2=O)c1 (configuration not stated) |
| 659 s | CCOC(=O)C(C)NC(=O)N1CCN(Cc2nc3cccnc3n2-c2ccc(CC)cc2)CC1 (configuration not stated) |
| 792 s | Cc1cccc(C2=NC3(CCN(C(=O)c4ccc5c(c4)OCO5)CC3)NC2=O)c1 |
| 702 s | O=C1c2ccccc2C(O)(c2ccccc2)N1c1ccncc1 (configuration not stated) |
| 844 s | CCN1N=C(C(=O)N2CCC(C)CC2)S(=O)(=O)c2ccccc21 |
| 647 s | CC(C)CNS(=O)(=O)c1cccc2cnccc12 |
| 624 s | CC1CCN(CCCNC(=O)C2c3ccccc3C(=O)N(C)C2c2cccs2)CC1 (configuration not stated) |
| 559 s | Cc1cnc(C2CC2)n1C1CCN(Cc2ccc(F)cc2F)C1 (configuration not stated) |
| 722 s | COc1ccc(S(=O)(=O)Nc2ccc3c(c2)N(C(C)=O)CC3)c(C)c1 |
| 905 s | Cc1ccc(-c2cc3c(N4CCC(C(=O)NC5CCCCC5)CC4)nccn3n2)c(C)c1 |
| 798 s | Cc1cc(OCC(=O)N2CCC3(O)CCCCC3C2)c2c(C)c(C)c(=O)oc2c1 (configuration not stated) |
| 915 s | Cn1nccc1-c1cccc(-c2noc(-c3ccc(F)cc3)n2)c1 |
| 599 s | Cc1nc2ccccn2c(=O)c1Cc1nnc(SCc2cc(=O)c3cccc(C)c3[nH]2)n1C |
| 1090 s | COc1ccc(-c2ncc3c(n2)CCN(S(=O)(=O)c2ccccc2C(F)(F)F)C3)cc1 |
| 726 s | O=C(NCc1cccc(Br)c1)C1CCN(c2cnc3nccnc3c2)CC1 |
| 788 s | CCCNC(=O)CCc1nc2ccccc2n(CC(=O)Nc2ccc(OCC)cc2)c1=O |
| 1210 s | COc1cccc(-n2c(=O)c(C(=O)Nc3ccc(F)cc3)c(O)c3cccnc32)c1 |
| 678 s | Cc1ccc(-c2cn3c(CC(=O)Nc4ccc(F)c(Cl)c4)csc3n2)cc1C |

| RP-LC retention time | Compound |
| --- | --- |
| 853 s | CCCN(CC1CCOC1)C(=O)Nc1ccc(Cl)cc1F (configuration not stated) |
| 791 s | O=C(NCc1ccc(F)cc1)[C@@H]1COCC(=O)N1Cc1ccc(F)cc1 |
| 730 s | CCc1ccccc1NC(=O)N1CCC(N2CCN(Cc3ccccc3)C(=O)C2=O)CC1 |
| 1060 s | CC(C)(C)C(=O)Nc1cnc(-c2ccc(Cl)cc2)nc1 |
| 657 s | CCn1cnc(S(=O)(=O)N2CCCC(C(=O)N3CCN(c4ncccn4)CC3)C2)c1 (configuration not stated) |
| 784 s | Cc1ccccc1CNC(=O)C1CCCN(c2nnc(C)c3c(C)n(-c4ccc(Cl)cc4)nc23)C1 (configuration not stated) |
| 996 s | O=C(CCc1ccc2cc[nH]c2c1)N1CCN(c2ccc(Cl)cc2)CC1 |
| 584 s | CCn1c(=O)cc(OCC(=O)N2CCN(c3ccccn3)CC2)c2ccccc21 |
| 586 s | CCc1nnc(NC(=O)CSc2nccn2Cc2ccc3c(c2)OCO3)s1 |
| 902 s | Cc1ccc(NC(=O)C2=C(Nc3ccc4c(c3)n(C)c(=O)n4C)c3ccccc3S2(=O)=O)cc1 |
| 944 s | CC(C)Cn1cc(S(=O)(=O)Nc2ccc(F)cc2F)c2cccnc21 |
| 902 s | COc1cc(C(=O)N2CCC3(CC2)Nc2ccccc2-n2cccc23)cc(OC)c1OC |
| 637 s | Cc1cnc(C2CC2)n1C1CCCN(S(=O)(=O)Cc2ccccc2)C1 (configuration not stated) |
| 614 s | CCN1CCN(c2nc3c(s2)CN(C(=O)CCC(C)C)CC3)CC1 |
| 764 s | COc1ccc(-c2cn3c(CC(=O)NCc4cccc(Br)c4)csc3n2)cc1OC |
| 645 s | CCC(=O)Nc1ccc(CCc2nc3ccc(C(=O)NCCC(C)C)cc3[nH]2)cc1 |
| 686 s | CCNCc1ccc(-c2cc(Cl)ccc2Cl)o1 |
| 675 s | O=C(CC1CCCCC1)N1CCN(c2nc(CN3CCCCC3)cs2)CC1 |
